Patent US7741472B2, “Polynucleotide containing a phosphate mimetic” (Roche Diagnostics Operations, Inc., priority 2005, dated 2010)
Each block holds one substance with its values, some of them ahead of it. Strand notation (5' to 3'): a small letter for the sugar, then the base; units joined by * are phosphorothioate-linked, units joined directly phosphodiester-linked; [ ] holds rarer units or linkages, { } end groups; capitals alone tell only the bases. [PNAc] = P=N-pPh-NAc phosphoramidate mimetic linkage (p1); {Fluorescein} = fluorescein label; d = 2'-deoxy (DNA)

What was measured:
factor V DNA = assay: Real time PCR of factor V DNA with modified FRET donor probes (crossing point); format: biochemical; details: LIGHTCYCLER 1.2, 106 copies of plasmid, 200 nM FRET probes, 640 nm channel
Protocol: (§1) A quantitative real time PCR of factor V DNA with subsequent melting curve analysis was carried out on a LIGHTCYCLER 1.2 instrument (Roche Diagnostics GmbH) in order to analyse the effect of phosphate mimetics on hybridization. Primers were used in combination with a pair of fluorescein/LIGHTCYCLER Red 640 FRET hybridization probes. The primers and the 5′ LIGHTCYCLER Red 640 probe were kept constant. The various 3′ fluorescein probes modified on the phosphate from example 4 and the unmodified fluorescein probe as a reference were used as FRET donor probes. The effect on the crossing point which is a measure for the amplification efficiency and the effect on the melting point were evaluated.
20 μl of a PCR reaction mixture was prepared as follows for the amplification of a factor V DNA fragment.
106 copies of a plasmid which contains the factor V wild type gene and mutants (Gene Bank Accession No. M 014335)
500 nM each primers having the SEQ ID NO: 1 and 2
200 nM each FRET hybridization probes having the SEQ ID NO: 3 and 4
The LIGHTCYCLER DNA Master Hyb Probes Kit (Roche Applied Science, Cat. No. 2158825) was used for all other PCR components according to the manufacturer's instructions.
The following sequences were used as primers and probes: […]
The following temperature program was used for the amplification on the LIGHTCYCLER 1.2 (Roche Applied Science).
(§2) The real time monitoring was carried out over 45 cycles using the 2nd derivative threshold method in which the fluorescence signal was measured in a detection channel that is specific for the LIGHTCYCLER Red 640 emission (at 640 nm) and the arithmetic background correction mode was used to normalize the initial signal.
(§3) The crossing points are shown in the following table as a measure for the amplification efficiency when using different modified donor probes.

[1] = test system: factor V wild type sequence; assay: Melting curve analysis of donor probes, wild type; format: binding; details: melting temperature of donor probe for factor V wild type sequence; in °C (unit assumed)
Protocol: as §1
After the amplification a melting curve analysis was carried out according to the instructions of the LIGHTCYCLER manual (Roche Applied Sciences).
(§4) The following temperature program was used:
(§5) The absolute fluorescence signals are measured as above in the 640 nm channel and subsequently the first derivative was calculated from this.
as §3

factor V mutant sequence = assay: Melting curve analysis of donor probes, mutant; format: binding; details: melting temperature of donor probe for factor V mutant sequence; in °C (unit assumed)
Protocol: as §1, with “LIGHTCYCLER” left out, “fluorescein/[…]” for “fluorescein/LIGHTCYCLER”, “The various 3′ fluorescein probes modified on the phosphate from example 4 and the unmodified fluorescein probe as a reference were used as FRET donor probes.” left out
After the amplification a melting curve analysis was carried out according to the instructions of the […] manual (Roche Applied Sciences).
as §4, §5

human Factor V DNA = assay: Real time PCR with modified primers (crossing point); format: biochemical; details: LIGHTCYCLER 1.2, primer combinations SEQ ID NO: 1 / SEQ ID NO: 2, 640 nm channel
Protocol: A quantitative real time PCR of human Factor V DNA was carried out on a LIGHTCYCLER 1.2 instrument (Roche Diagnostics GmbH) in order to analyse the effect of phosphate mimetics on primer elongation. The P═N-pPh-NAc mimetic which was introduced at different positions of a primer pair used for amplification of human Factor V DNA. The modified primers were, synthesized according to example 4. Purification was done by the Reversed Phase chromatography of example 3 in the Trityl on mode. Detritylation was performed by treating with 80% acetic acid for 20 min.
This primers were used in combination with a pair of fluorescein/LIGHTCYCLER Red 640 FRET hybridization probes according to example 6. The Fluorescein probe and the 5′ LIGHTCYCLER Red 640 probe (SEQ ID NO: 3 and 4) were kept constant. Various combinations of modified and unmodified primers were tested. As reference unmodified primers were used. The effect on the crossing point which is a measure for the amplification efficiency was evaluated.
as §2, with “which,” for “which”
The absolute fluorescence signals are measured as above in the 640 nm channel and subsequently the first derivative was calculated from this. The crossing points are shown in the following table as a measure for the amplification efficiency when using different modified primers.

[2] = Stability of dinucleotides at different temperatures and pH, reverse phase HPLC; format: physicochemical; details: for stability: pH 7.0, 8.0 and 9.0, 24 h at rt, 1 h at 95° C.
Protocol: dA(P(═NSO2PhNHAc)dT was synthesized and purified according to example 1) dAdT was also synthesized according to example 1, but standard oxidizers were used (0.02 M iodine in THF).
The dimers were exposed for different times and temperatures in 10 mM Tris buffer at different pH values 7.0, 8.0, and 9.0. Samples were left at room temperature (approx. 24° C.) for 24 h or at 95° C. for 60 min respectively 16 h. 150 μL aliquots were removed before and after the experiment and 100 μL volumes were injected on the HPLC.
The decomposition was monitored by reverse phase HPLC on an analytical X-Bridge column (2.5 μm, 4.6×50 mm i.d.) with a Waters 2690 separation module. Detection was carried out with a Waters 2996 PAD Detector (260 nm). A mobile phase of 0.1 M triethylammonium acetate (pH 6.8) pumped with a 95% gradient of acetonitrile at flow rate of 1.0 ml/min was used. The destruction rate of the dimers was judged by monitoring the retention time rt of the dimer signal (Software Millenium, Waters) and determining whether additional peaks with retention times different than that, of the nucleotide dimer occur.

[3] = pH 7.0, 10 mM Tris, 1 h at 95° C. (dry oven)
[4] = pH 7.0, 10 mM Tris, 16 h at 95° C. (dry oven)
[5] = pH 7.0, 10 mM Tris, 24 h at rt (24° C.)
[6] = pH 7.0, 10 mM Tris, starting solution
[7] = pH 8.0, 10 mM Tris, 1 h at 95° C. (dry oven)
[8] = pH 8.0, 10 mM Tris, 16 h at 95° C. (dry oven)
[9] = pH 8.0, 10 mM Tris, 24 h at rt (24° C.)
[10] = pH 8.0, 10 mM Tris, starting solution
[11] = pH 9.0, 10 mM Tris, 1 h at 95° C. (dry oven)
[12] = pH 9.0, 10 mM Tris, 16 h at 95° C. (dry oven)
[13] = pH 9.0, 10 mM Tris, 24 h at rt (24° C.)
[14] = pH 9.0, 10 mM Tris, starting solution

Substance: 5′ AATACCTGTATTCCTCGCCTGTC-fluorescein-3′ (ref): unmodified fluorescein FRET donor probe SEQ ID NO: 4, used as a reference (DNA dAdAdTdAdCdCdTdGdTdAdTdTdCdCdTdCdGdCdCdTdGdTdC-{Fluorescein}) [reference compound]
Cp (crossing point, measure for the amplification efficiency) (factor V DNA): 22.11
Tm wt [1]: 64.92
Tm mt (factor V mutant sequence): 56.98

Substance: 5′ AATACCTGTATTCCTCGCCTGTp1C fluorescein-3′: Example 4 fluorescein probe SEQ ID NO: 4; p1 is a P = N-pPh-NAc mimetic (DNA dAdAdTdAdCdCdTdGdTdAdTdTdCdCdTdCdGdCdCdTdGdT[PNAc]dC-{Fluorescein})
Cp (crossing point, measure for the amplification efficiency) (factor V DNA): 22.61
Tm wt [1]: 64.32
Tm mt (factor V mutant sequence): 56.26

Substance: 5′ AATACCTGTATTp1Cp1Cp1Tp1Cp1Gp1Cp1Cp1Tp1Gp1Tp1C-fluorescein-3′: Example 4 fluorescein probe SEQ ID NO: 4, multiply modified; p1 is a P = N-pPh-NAc mimetic (DNA dAdAdTdAdCdCdTdGdTdAdTdT[PNAc]dC[PNAc]dC[PNAc]dT[PNAc]dC[PNAc]dG[PNAc]dC[PNAc]dC[PNAc]dT[PNAc]dG[PNAc]dT[PNAc]dC-{Fluorescein})
Cp (crossing point, measure for the amplification efficiency) (factor V DNA): 21.91
Tm wt [1]: 60.74
Tm mt (factor V mutant sequence): 52.14

Substance: 5′ AATACCTGp1TATTCCTCp1GCCTGTC-fluorescein-3′: Example 4 fluorescein probe SEQ ID NO: 4, two-fold modified; p1 is a P = N-pPh-NAc mimetic (DNA dAdAdTdAdCdCdTdG[PNAc]dTdAdTdTdCdCdTdC[PNAc]dGdCdCdTdGdTdC-{Fluorescein})
Cp (crossing point, measure for the amplification efficiency) (factor V DNA): 22.26
Tm wt [1]: 64.28
Tm mt (factor V mutant sequence): 55.89

Substance: 5′ Ap1ATACCTGTATTCCTCGCCTGTC fluorescein-3′: Example 4 fluorescein probe SEQ ID NO: 4; p1 is a P = N-pPh-NAc mimetic (DNA dA[PNAc]dAdTdAdCdCdTdGdTdAdTdTdCdCdTdCdGdCdCdTdGdTdC-{Fluorescein})
Cp (crossing point, measure for the amplification efficiency) (factor V DNA): 22.51
Tm wt [1]: 64.80
Tm mt (factor V mutant sequence): 56.80

Substance: 5′ Ap1Ap1Tp1ACCTGTATp1Tp1Cp1CTCGCCTp1Gp1Tp1C-fluorescein-3′: Example 4 fluorescein probe SEQ ID NO: 4, multiply modified; p1 is a P = N-pPh-NAc mimetic (DNA dA[PNAc]dA[PNAc]dT[PNAc]dAdCdCdTdGdTdAdT[PNAc]dT[PNAc]dC[PNAc]dCdTdCdGdCdCdT[PNAc]dG[PNAc]dT[PNAc]dC-{Fluorescein})
Cp (crossing point, measure for the amplification efficiency) (factor V DNA): 22.00
Tm wt [1]: 61.40
Tm mt (factor V mutant sequence): 52.83

Substance: 5′ Ap1Ap1Tp1Ap1Cp1Cp1Tp1Gp1Tp1Ap1Tp1TCCTCGCCTGTC-fluorescein-3′: Example 4 fluorescein probe SEQ ID NO: 4, multiply modified; p1 is a P = N-pPh-NAc mimetic (DNA dA[PNAc]dA[PNAc]dT[PNAc]dA[PNAc]dC[PNAc]dC[PNAc]dT[PNAc]dG[PNAc]dT[PNAc]dA[PNAc]dT[PNAc]dTdCdCdTdCdGdCdCdTdGdTdC-{Fluorescein})
Cp (crossing point, measure for the amplification efficiency) (factor V DNA): 21.40
Tm wt [1]: 60.69
Tm mt (factor V mutant sequence): 52.19

Substance: 5′ GAGAGACATCGCCTCTGGGCTA / 5′ TGTTATCACACTGGTGCTAA: unmodified primer pair SEQ ID NO: 1 and 2, used as reference (DNA 1 GAGAGACATCGCCTCTGGGCTA; DNA 2 TGTTATCACACTGGTGCTAA; unmodified DNA) [reference compound]
Cp (crossing point, measure for the amplification efficiency) (human Factor V DNA): 20.36

Substance: 5′ GAGAGACATCGCCTCTGGGCTA / 5′ TGT TAT CAC ACT p1GGT GCT AA: primer combination; p1 is a P = N-pPh-NAc mimetic
Cp (crossing point, measure for the amplification efficiency) (human Factor V DNA): 21.36

decomposition ([2]; after 16 h at 95° C. at pH 7.0): started decomposing
rtHPLC (retention time of the dimer signal) [2, 3]: rtHPLC = 2.99
additional peaks (decomposition) [2, 4]: 2 new peaks t = 1.2, 2.0.
rtHPLC (retention time of the dimer signal) [2, 4]: rtHPLC = 2.99
rtHPLC (retention time of the dimer signal) [2, 5]: rtHPLC = 2.93
rtHPLC (retention time of the dimer signal) [2, 6]: rtHPLC = 2.93
stability [2]: stable
rtHPLC (retention time of the dimer signal) [2, 7]: rtHPLC = 2.92
rtHPLC (retention time of the dimer signal) [2, 8]: rtHPLC = 2.92
rtHPLC (retention time of the dimer signal) [2, 9]: rtHPLC = 2.96
rtHPLC (retention time of the dimer signal) [2, 10]: rtHPLC = 2.96
rtHPLC (retention time of the dimer signal) [2, 11]: rtHPLC = 2.95
rtHPLC (retention time of the dimer signal) [2, 12]: rtHPLC = 2.95
rtHPLC (retention time of the dimer signal) [2, 13]: rtHPLC = 2.92
rtHPLC (retention time of the dimer signal) [2, 14]: rtHPLC = 2.92
Substance: dA(P(═NSO2PhNHAc)dT [dA(P(=NSO2PhNHAc)dT]

decomposition ([2]; after 16 h at pH 7.0 and pH 8.0): started decomposing
rtHPLC (retention time of the dimer signal) [2, 3]: rtHPLC = 2.48
additional peaks (decomposition) [2, 4]: 1 new peak t = 6.2
rtHPLC (retention time of the dimer signal) [2, 4]: rtHPLC = 2.42
rtHPLC (retention time of the dimer signal) [2, 5]: rtHPLC = 2.39
rtHPLC (retention time of the dimer signal) [2, 6]: rtHPLC = 2.39
stability [2]: stable
rtHPLC (retention time of the dimer signal) [2, 7]: rtHPLC = 2.42
additional peaks (decomposition) [2, 8]: 1 new peak 6.2
rtHPLC (retention time of the dimer signal) [2, 8]: rtHPLC = 2.41
rtHPLC (retention time of the dimer signal) [2, 9]: rtHPLC = 2.38
rtHPLC (retention time of the dimer signal) [2, 10]: rtHPLC = 2.38
rtHPLC (retention time of the dimer signal) [2, 11]: rtHPLC = 2.42
rtHPLC (retention time of the dimer signal) [2, 12]: rtHPLC = 2.43
rtHPLC (retention time of the dimer signal) [2, 13]: rtHPLC = 2.41
rtHPLC (retention time of the dimer signal) [2, 14]: rtHPLC = 2.41
Substance: dAdT
